{"source": "patent US12053533B2", "about": "“Fluorescent probe for cyclooxygenase-2” (The Board of Trustees of the University of Illinois, priority 2020, dated 2024)", "key": {"[1]": {"tested_on": "horseradish peroxidase, bovine catalase, porcine esterase, human CYP2J2 (with cytochrome reductase), rat liver microsomes", "test": "Enzyme selectivity panel (off-target activation)", "assay_type": "biochemical", "conditions": "10-fold excess protein (1.01 U vs 0.101 U COX-2), CoxFluor 10 μM", "procedure": "Enzyme Selectivity. Enzyme activity was defined as the amount substrate (μmol) consumed during one minute by one milligram of enzyme in 100 mM Tris-HCl at pH 8.0 under saturating conditions. Enzyme concentrations were measured using the BCA assay (Thermo Fisher Scientific) according to the published protocol with bovine serum albumin for the standard curve. COX-1 and COX-2 cyclooxygenase activities were measured using Strathkelvin oxygen electrode with arachidonic acid (200 μM). The oxygen electrode was calibrated using 1% sodium sulfite for 0% oxygen and atmosphere equilibrated 100 mM Tris-HCl at pH 8.0 for 100% oxygen. The reaction was monitored at 37° C. in a glass chamber with a total reaction volume of 1 mL. […]\nPorcine esterase activity was measured spectroscopically at 405 nm using p-nitrophenyl acetate (1.5 mM) as the substrate. Bovine catalase activity was measured using a discontinuous Amplex® Red-horseradish peroxidase assay to quantify the amount of hydrogen peroxide (initially 31.25 μM) remaining after 0.5 h incubation with excitation at 540 nm and emission at 590 nm. CYP2J2 activity was measured spectroscopically at 340 nm using […] (3-fold excess), NADPH (1 mM), and arachidonic acid (70 μM) as the substrate. […]\nSelectivity was assessed using 10-fold excess protein (350 μg/mL) and the solution was brought to a pH of 8.0 after 4 h with 0.5 M aq. […]"}, "[2]": {"tested_on": "RAW 264.7 macrophage cells", "test": "Cell viability (trypan blue exclusion and MTT) in RAW 264.7 macrophage cells", "assay_type": "cell-based, mouse", "conditions": "6 h incubation", "procedure": "Trypan Blue Exclusion Cytotoxicity Assay. 6-well plates were seeded with 300,000 cells per well (2 mL of 150,000 cells/mL) and incubated at 37° C. with 5% CO2 for 48 to 72 h (˜60-80% confluent). Media was removed and replaced with either 5, 10, or 25 μM CoxFluor in fresh serum-free DMEM media (1.25% DMSO v/v final concentration). […] The trypsin was quenched with the addition of 1.8 mL DMEM media containing 10% FBS and the cells were mixed thoroughly before diluting 1:1 with trypan blue (0.4% in PBS w/v). Percent viability was measured using a Countess® II FL Automated Cell Counter (Thermo Fisher Scientific), where the parameters were optimized to identify live and dead cells. Viability was calculated by the relative to the vehicle control.\nMTT Cytotoxicity Assay. […] The media was removed at various time points (3 or 6 h) and replaced with 200 μL 20:1 mixture of FBS-free DMEM and (3-(4,5-dimethylthiazol-2-yl)-2,5-diphenyl-tetrazolium bromide (MTT, 5 mg/mL stock in PBS). The cells were incubated for 4 h under the same conditions and then the medium was removed and replaced with DMSO (200 μL/well). The absorbance of each well was recorded after a 1:5 dilution in DMSO at 555 nm on a microplate reader. Viability was calculated by the absorbance relative to the vehicle control."}, "[3]": {"test": "CoxFluor, Ctrl-CoxFluor & Resorufin stability assays", "assay_type": "physicochemical", "conditions": "8 hours at room temperature or 37° C., with or without ambient light", "procedure": "CoxFluor, Ctrl-CoxFluor & Resorufin Stability Assays. Stability assays were performed for a 10 μM solution of each compound in a series of buffers/solvents (100 mM Tris-HCl at pH 8.0, DMEM with 10% FBS, DMEM without serum and DMSO). Stability was assessed at room temperature or at 37° C. and in the presence or absence of ambient light. Fluorescence was measured using the plate reader with excitation at 540 nm and emission from 560-700 nm and the relative turn-on was determined by the change of fluorescence intensity at 590 nm."}, "[4]": {"tested_on": "COX-2 activity in RAW 264.7 macrophage cells", "test": "Flow cytometry of LPS-induced COX-2 activity in RAW 264.7 macrophages", "assay_type": "cell-based, mouse", "conditions": "CoxFluor 10 μM", "description": "Flow Cytometry of Lipopolysaccharide-induced COX-2 Expression in RAW 264.7 Macrophages. […] After staining, cells were pelleted using the aforementioned procedure and were resuspended in PBS. […] Replicate numbers correspond to biological replicates."}}, "data": [{"smiles": "CCCCC/C=C\\C/C=C\\C/C=C\\C/C=C\\CCCC(=O)N1c2ccc(O)cc2Oc2cc(O)ccc21", "note": "[CoxFluor]", "values": [{"measurement": "selectivity against tested enzymes", "setting": "[1]", "value": "good selectivity"}, {"measurement": "cell viability", "setting": "[2]", "value": "suitable viability"}, {"measurement": "stability in Tris-HCl and DMEM buffer systems", "setting": "[3]", "value": "stable"}, {"measurement": "increase in median fluorescence, cells activated 19 hr compared to 4 hr", "setting": "[4]; after BSO pre-treatment", "value": 1.6, "unit": "fold"}, {"measurement": "increase in activity after 19 hr LPS-activation relative to 4 hr", "setting": "[4]; without GSH depletion", "value": 1.2, "unit": "fold"}]}]}
